Patent US10064975B2, “Method for coating skin abrasion, laceration, burn or oedema after surgery” (Lilac Laboratory Co., Ltd., priority 2014, dated 2018)

Assay: pH
Assay type: physicochemical
Details: less affected by the concentration
Source text: According to the present invention, an active ingredient, aluminium chloride hydrate, is preferably used at the practical range of 0.005% to 20% by weight in view of the strong acidity thereof and tissue irritating nature. The pH of aluminium chloride is less affected by the concentration and is as low as around pH 1.9. Aluminium chloride has strong tissue irritating nature, and thus is more preferably adjusted to pH of 2.8 to 6.0 in practical use.
In the present Example, in order to reduce irritating nature at affected areas due to the acidity of aluminium chloride, 3.0% of the 10% sodium hydroxide solution was added to neutralise, the produced precipitate was removed by filtration and pH was adjusted to 3.9. […] Therefore, the 70% ethanol preparation was added as a fungicide.
In the present Example, in order to reduce irritating nature at affected areas due to the acidity of aluminium chloride, the solution was neutralised with sodium hydroxide and adjusted to pH 3.5, and the precipitate was removed by filtration.

- pH of aluminium chloride: ~1.9
SMILES: [Cl][Al]([Cl])[Cl] [aluminium chloride]
